The record followed here is ChEMBL document CHEMBL1201862, “PubChem BioAssay data set” (2004).

Some test systems named below: RXF 393; OVCAR-3; SR; OVCAR-8; HCC 2998; HOP-62; A549; OVCAR-4; M14; UACC-257; HCT-15; PC-3; U-251; EKVX; UO-31; K562; TK-10; NCI/ADR-RES; SK-MEL-5.
What all share (assay): NCI-60 cell line screen, 48 h

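Tested at 5 concentrations; 48 h exposure; 96-well plates; endpoints linearly interpolated, else capped at highest concentration. GI50 marks 50% less growth.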 Calls of active or inactive are those of the source. No stated cut-off is given here; in the data, active = GI50 up to about 1.1 µM and inactive = higher.

For the compound `COc1ccc(/C=C2/CCS(=O)(=O)c3ccc(C)cc3C2=O)cc1OC`, the GI50 is 12.9 µM (inactive) in the assay on RXF 393; 28.1 µM (inactive) in the assay with OVCAR-3; 20.6 µM (inactive) in the assay on SR; 12.3 µM (inactive) with OVCAR-8; 6.47 µM (inactive) in the assay with HCC 2998; 28.9 µM (inactive) in the assay on HOP-62. In addition, the GI50 in the assay with A549 was 25.9 µM (inactive); in the assay with OVCAR-4, 11.3 µM (inactive); in the assay with M14 it was 17.2 µM (inactive); in the assay with UACC-257, 11.9 µM (inactive); in the assay with HCT-15 it was 7.18 µM; with PC-3 it was 15.8 µM (inactive). Besides, the GI50 is 12.8 µM (inactive) with U-251; 13.7 µM (inactive) in the assay with EKVX; 7.48 µM (inactive) with UO-31; 24.8 µM (inactive) in the assay with K562; 13.6 µM (inactive) in the assay on TK-10; 11.8 µM (inactive) in the assay with NCI/ADR-RES.

For the compound `Oc1c(N2CCCCC2)cc(-c2cc(N3CCCCC3)c(O)c3ccccc23)c2ccccc12`, the GI50 is 20.4 µM (inactive) with RXF 393; 23.3 µM (inactive) in the assay with OVCAR-3; 0.368 µM (active) in the assay on SR; 33 µM (inactive) in the assay on OVCAR-8; 33.5 µM (inactive) with HCC 2998; 32.1 µM (inactive) in the assay on HOP-62. Moreover, the GI50 with A549 is 39.3 µM (inactive); with OVCAR-4, 17.1 µM (inactive); in the assay on SK-MEL-5, 17.5 µM (inactive); with M14, 16.7 µM (inactive); in the assay on UACC-257, 14.9 µM (inactive); in the assay on HCT-15 it was 35.2 µM. Moreover, the GI50 is 31.3 µM (inactive) in the assay with PC-3; 35.2 µM (inactive) in the assay on U-251; > 100 µM (inactive) in the assay with EKVX; > 100 µM (inactive) in the assay on UO-31; 71.9 µM (inactive) in the assay on K562; > 100 µM (inactive) in the assay on TK-10. Also, the GI50 in the assay on NCI/ADR-RES was 34.2 µM (inactive).

For `Cc1nn(C(=O)c2ccc(Cl)cc2)c2c1C(c1cccc([N+](=O)[O-])c1)SC(=N)N2` (centres undefined), the GI50 with RXF 393, in the assay with OVCAR-3, in the assay with SR, in the assay on OVCAR-8, in the assay on HCC 2998 and with HOP-62 was > 10 µM (inactive) each time. Besides, the GI50 was > 10 µM (inactive) in the assay on A549; > 10 µM (inactive) with OVCAR-4; > 10 µM (inactive) with SK-MEL-5; > 10 µM (inactive) with M14; > 10 µM (inactive) with UACC-257; 2.56 µM in the assay with HCT-15. Also, the GI50 with PC-3, in the assay on U-251, with EKVX, with K562, with TK-10 and in the assay on NCI/ADR-RES was > 10 µM (inactive) in each case.

On to `N=C(N)c1ccc(/N=N/c2c(O)ccc3cc(O)ccc23)cc1`, for which the GI50 in the assay on RXF 393 was > 100 µM (inactive); in the assay with OVCAR-3, > 100 µM (inactive); in the assay with SR it was 24.7 µM (inactive); in the assay on OVCAR-8, > 100 µM (inactive); with HCC 2998, > 100 µM (inactive); in the assay with HOP-62, > 100 µM (inactive). The GI50 is > 100 µM (inactive) in the assay on A549; > 100 µM (inactive) in the assay on OVCAR-4; > 100 µM (inactive) in the assay with SK-MEL-5; > 100 µM (inactive) in the assay on M14; > 100 µM (inactive) with UACC-257; over 100 µM with HCT-15. Moreover, the GI50 in the assay on PC-3, with U-251, in the assay on EKVX, with UO-31, with K562 and with TK-10 was > 100 µM (inactive) each time. Besides, the GI50 with NCI/ADR-RES was > 100 µM (inactive).
